US8859574B2 (IRM LLC, priority 2008, dated 2014)

Target: T1, IGF-1R Ba/F3 (Homo sapiens, UniProt P08069)
T1 construct: fused on or other part: TEL- (or BCR-) IGF-1R in Ba/F3: the kinase part holds the site
Test: Ba/F3 Cell Viability Inhibition Assay (IGF-1R Ba/F3)
Type: cell-based, murine
Details: Tel-TK transformed Ba/F3 cells, 48 hours, Britelite luminescence
Outline: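 IL-3-independent murine Ba/F3 cells transformed with a TEL/BCR-fused IGF-1R kinase were seeded at 3750 cells/well and exposed to serially diluted compound for 48 h at 37 °C. Viability was read by Britelite luminescence. IC50 is the concentration giving 50% of DMSO-control viability, from a logistic fit.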

T1 sequence (P08069 999-1274 limits assumed): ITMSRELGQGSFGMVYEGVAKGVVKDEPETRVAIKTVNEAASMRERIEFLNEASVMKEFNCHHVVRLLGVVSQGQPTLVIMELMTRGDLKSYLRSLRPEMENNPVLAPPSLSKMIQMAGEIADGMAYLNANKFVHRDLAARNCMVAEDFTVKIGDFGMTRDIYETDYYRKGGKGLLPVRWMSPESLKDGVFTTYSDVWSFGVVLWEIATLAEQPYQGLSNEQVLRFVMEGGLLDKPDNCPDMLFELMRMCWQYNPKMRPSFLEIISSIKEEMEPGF

**Q.** How did the IC50 turn out when `Cc1cc(Nc2nc(Nc3cc(C)c(C4CCN(C(=O)[C@H]5CCCN5C)CC4)cc3C)ncc2Cl)n[nH]1` [Compound 133, (R)-(4-(4-(5-chloro-4-(5-methyl-1H-pyrazol-3-ylamino)pyrimidin-2-ylamino)-2,5-dimethylphenyl)piperidin-1-yl)(1-methylpyrrolidin-2-yl)methanone] was run?
**A.** Its IC50 is 13 nM.

**Q.** `Cc1cc(Nc2nc(Nc3cc(C)c(C4CCN(C(=O)[C@H]5CCCN5C)CC4)cc3F)ncc2Cl)n[nH]1` [Compound 134, (R)-(4-(4-(5-chloro-4-(5-methyl-1H-pyrazol-3-ylamino)pyrimidin-2-ylamino)-5-fluoro-2-methylphenyl)piperidin-1-yl)(1-methylpyrrolidin-2-yl)methanone] was tested. Which IC50 did it give?
**A.** Its IC50 is 21 nM.

**Q.** For `Cc1cc(Nc2nc(Nc3cc(C)c(C4CCN(C(=O)[C@H]5CCCN5C(C)C)CC4)cc3F)ncc2Cl)n[nH]1` [Compound 135, (R)-(4-(4-(5-chloro-4-(5-methyl-1H-pyrazol-3-ylamino)pyrimidin-2-ylamino)-5-fluoro-2-methylphenyl)piperidin-1-yl)(1-isopropylpyrrolidin-2-yl)methanone], which IC50 is on record?
**A.** The IC50 was 48 nM.

**Q.** How did the IC50 turn out when `Cc1cc(Nc2nc(Nc3cc(C)c(C4CCN(C(=O)c5ocnc5C)CC4)cc3F)ncc2Cl)n[nH]1` [Compound 136, (4-(4-(5-chloro-4-(5-methyl-1H-pyrazol-3-ylamino)pyrimidin-2-ylamino)-5-fluoro-2-methylphenyl)piperidin-1-yl)(4-methyloxazol-5-yl)methanone] was run?
**A.** Its IC50 is 35 nM.

**Q.** `Cc1cc(Nc2nc(Nc3cc(C)c(C4CCN(C(=O)c5c(C)noc5C)CC4)cc3F)ncc2Cl)n[nH]1` [Compound 137, (4-(4-(5-chloro-4-(5-methyl-1H-pyrazol-3-ylamino)pyrimidin-2-ylamino)-5-fluoro-2-methylphenyl)piperidin-dimethylisoxazol-4-yl)methanone] was tested. Which IC50 did it give?
**A.** The IC50 was 18 nM.

**Q.** Which IC50 does the source give for `Cc1cc(Nc2nc(Nc3cc(C)c(C4CCN(C(=O)[C@]5(C)CCCN5)CC4)cc3F)ncc2Cl)n[nH]1` [Compound 138, (S)-(4-(4-(5-chloro-4-(5-methyl-1H-pyrazol-3-ylamino)pyrimidin-2-ylamino)-5-fluoro-2-methylphenyl)piperidin-1-yl)(2-methylpyrrolidin-2-yl)methanone] here?
**A.** The IC50 was 91 nM.

**Q.** How did the IC50 turn out when `Cc1cc(Nc2nc(Nc3cc(C)c(C4CCN(C(=O)n5cnnn5)CC4)cc3F)ncc2Cl)n[nH]1` [Compound 140, (4-(4-(5-chloro-4-(5-methyl-1H-pyrazol-3-ylamino)pyrimidin-2-ylamino)-5-fluoro-2-methylphenyl)piperidin-1-yl)(1H-tetrazol-1-yl)methanone] was run?
**A.** The IC50 was 139 nM.

**Q.** `Cc1cc(Nc2nc(Nc3cc(C)c(C4CCN(C(=O)c5nc(C)oc5C(F)(F)F)CC4)cc3F)ncc2Cl)n[nH]1` [Compound 141, (4-(4-(5-chloro-4-(5-methyl-1H-pyrazol-3-ylamino)pyrimidin-2-ylamino)-5-fluoro-2-methylphenyl)piperidin-1-yl)(2-methyl-5-(trifluoromethyl)oxazol-4-yl)methanone] was tested. Which IC50 did it give?
**A.** Its IC50 is 69 nM.

**Q.** For `Cc1cc(Nc2nc(Nc3cc(C)c(C4CCN(C(=O)C5CCCC(=O)N5)CC4)cc3F)ncc2Cl)n[nH]1` (stereo not drawn) [Compound 142, 6-(4-(4-(5-chloro-4-(5-methyl-1H-pyrazol-3-ylamino)pyrimidin-2-ylamino)-5-fluoro-2-methylphenyl)piperidine-1-carbonyl)piperidin-2-one], which IC50 is on record?
**A.** Its IC50 is 282 nM.

**Q.** Which IC50 does the source give for `Cc1cc(Nc2nc(Nc3cc(C)c(C4CCN(C(=O)[C@@H]5COCCN5)CC4)cc3F)ncc2Cl)n[nH]1` [Compound 143, (S)-(4-(4-(5-chloro-4-(5-methyl-1H-pyrazol-3-ylamino)pyrimidin-2-ylamino)-5-fluoro-2-methylphenyl)piperidin-1-yl)(morpholin-3-yl)methanone] here?
**A.** Its IC50 is 71 nM.

**Q.** `Cc1cc(Nc2nc(Nc3cc(Cl)c(C4CCN(C5CCS(=O)(=O)C5)CC4)cc3C)ncc2Cl)n[nH]1` (stereo not drawn) [Compound 144, 5-chloro-N^2-(2-methyl-5-chloro-4-(1-(tetrahydro-1,1-dioxido-3-thienyl)piperidin-4-yl)phenyl)-N^4-(5-methyl-1H-pyrazol-3-yl)pyrimidine-2,4-diamine] was tested. Which IC50 did it give?
**A.** Its IC50 is 7 nM.

**Q.** How did the IC50 turn out when `Cc1cc(Nc2nc(Nc3cc(C)c(C4CCN(C5CCS(=O)(=O)C5)CC4)cc3F)ncc2Cl)n[nH]1` (stereo not drawn) [Compound 145, 5-chloro-N^2-(2-fluoro-5-methyl-4-(1-(tetrahydro-1,1-dioxido-3-thienyl)piperidin-4-yl)phenyl)-N^4-(5-methyl-1H-pyrazol-3-yl)pyrimidine-2,4-diamine] was run?
**A.** Its IC50 is 18 nM.

**Q.** `Cc1cc(Nc2nc(Nc3cc(C)c(C4CCN(C5CCS(=O)(=O)CC5)CC4)cc3C)ncc2Cl)n[nH]1` [Compound 146] was tested. Which IC50 did it give?
**A.** The IC50 was 258 nM.

**Q.** `Cc1cc(Nc2nc(Nc3cc(C)c(C4CCN(C5CS(=O)(=O)C5)CC4)cc3F)ncc2Cl)n[nH]1` [Compound 148, 5-chloro-N^2-(2-fluoro-5-methyl-4-(1-(1,1-dioxido-3-thietanyl)piperidin-4-yl)phenyl)-N^4-(5-methyl-1H-pyrazol-3-yl)pyrimidine-2,4-diamine] was tested. Which IC50 did it give?
**A.** The IC50 was 18 nM.

**Q.** How did the IC50 turn out when `CCc1cnc(N2CCC(c3cc(F)c(Nc4ncc(Cl)c(Nc5cc(C)[nH]n5)n4)cc3C)CC2)nc1` [Compound 149, 5-Chloro-N2-(4-(1-(5-ethylpyrimidin-2-yl)piperidin-4-yl)-2-fluoro-5-methylphenyl)-N4-(5-methyl-1H-pyrazol-3-yl)pyrimidine-2,4-diamine] was run?
**A.** Its IC50 is 955 nM.

**Q.** `Cc1cc(Nc2nc(Nc3cc(C)c(C4=CCNCC4)cc3F)ncc2Cl)n[nH]1` [Compound 150, 5-chloro-N2-(2-fluoro-5-methyl-4-(1,2,3,6-tetrahydropyridin-4-yl)phenyl)-N4-(5-methyl-1H-pyrazol-3-yl)pyrimidine-2,4-diamine] was tested. Which IC50 did it give?
**A.** The IC50 was 25 nM.

**Q.** With `Cc1cc(Nc2nc(Nc3cc(C)c(C4CCNC(=O)C4)cc3C)ncc2Cl)n[nH]1` (stereo not drawn) [Compound 151, 4-(4-(5-chloro-4-(5-methyl-1H-pyrazol-3-ylamino)pyrimidin-2-ylamino)-2,5-dimethylphenyl)piperidin-2-one] as the compound, how does the IC50 read?
**A.** Its IC50 is 9 nM.

**Q.** With `Cc1cc(Nc2nc(Nc3cc(C)c(C4CCOC(=O)C4)cc3C)ncc2Cl)n[nH]1` (stereo not drawn) [Compound 152, 4-(4-(5-chloro-4-(5-methyl-1H-pyrazol-3-ylamino)pyrimidin-2-ylamino)-2,5-dimethylphenyl)tetrahydro-2H-pyran-2-one] as the compound, how does the IC50 read?
**A.** The IC50 was 155 nM.

**Q.** Which IC50 does the source give for `Cc1cc(Nc2nc(Nc3cc(C(F)(F)F)c(N4CCOCC4)cc3F)ncc2Cl)n[nH]1` [Compound 153, 5-chloro-N2-(2-fluoro-4-morpholino-5-(trifluoromethyl)phenyl)-N4-(5-methyl-1H-pyrazol-3-yl)pyrimidine-2,4-diamine] here?
**A.** The IC50 was 91 nM.

**Q.** How did the IC50 turn out when `Cc1cc(Nc2nc(Nc3cc(C)c(C4CCS(=O)(=O)C4)cc3C)ncc2Cl)n[nH]1` (stereo not drawn) [Compound 154, 5-Chloro-N^2-[4-(1,1-dioxo-tetrahydro-1λ^6-thiophen-3-yl)-2,5-dimethyl-phenyl]-N^4-(5-methyl-1H-pyrazol-3-yl)-pyrimidine-2,4-diamine] was run?
**A.** Its IC50 is 12 nM.

**Q.** For `Cc1cc(Nc2nc(Nc3cc(C)c(N4CCNCC4=O)cc3C)ncc2Cl)n[nH]1` [Compound 155, 1-(4-(5-chloro-4-(5-methyl-1H-pyrazol-3-ylamino)pyrimidin-2-ylamino)-2,5-dimethylphenyl)piperazin-2-one], which IC50 is on record?
**A.** The IC50 was 1650 nM.

**Q.** Which IC50 does the source give for `Cc1cc(Nc2nc(Nc3cc(C(F)(F)F)c(N4CCN(C)CC4)cc3C)ncc2Cl)n[nH]1` [Compound 156, 5-chloro-N4-(5-methyl-1H-pyrazol-3-yl)-N2-(2-methyl-4-(4-methylpiperazin-1-yl)-5-(trifluoromethyl)phenyl)pyrimidine-2,4-diamine] here?
**A.** The IC50 was 40 nM.

**Q.** With `Cc1cc(Nc2nc(Nc3cc(C(F)(F)F)c(N4CCN(C)CC4)cc3F)ncc2Cl)n[nH]1` [Compound 157, 5-chloro-N^2-(2-fluoro-4-(4-methylpiperazin-1-yl)-5-(trifluoromethyl)phenyl)-N^4-(5-methyl-1H-pyrazol-3-yl)pyrimidine-2,4-diamine] as the compound, how does the IC50 read?
**A.** Its IC50 is 75 nM.

**Q.** Which IC50 does the source give for `Cc1cc(C2CCNCC2)c(C)cc1Nc1ncc(Cl)c(Nc2ccc[nH]c2=O)n1` [Compound 158, 3-(5-chloro-2-(2,5-dimethyl-4-(piperidin-4-yl)phenylamino)pyrimidin-4-ylamino)pyridin-2(1H)-one] here?
**A.** Its IC50 is 62 nM.

**Q.** `Cc1cc(Nc2nc(Nc3cc(C)c(C4CCN(C)CC4)cc3F)ncc2Cl)no1` [Compound 159, 5-chloro-N2-(2-fluoro-5-methyl-4-(1-methylpiperidin-4-yl)phenyl)-N4-(5-methylisoxazol-3-yl)pyrimidine-2,4-diamine] was tested. Which IC50 did it give?
**A.** Its IC50 is 73 nM.

**Q.** With `Cc1cc(Nc2ncc(Cl)c(Nc3cc[nH]n3)n2)c(OC(C)C)cc1C1CCN(C)CC1` [Compound 161, 5-chloro-N2-(2-isopropoxy-5-methyl-4-(1-methylpiperidin-4-yl)phenyl)-N4-(1H-pyrazol-3-yl)pyrimidine-2,4-diamine] as the compound, how does the IC50 read?
**A.** The IC50 was 332 nM.

**Q.** How did the IC50 turn out when `CCOC(=O)N1CCC(c2cc(C)c(Nc3ncc(Cl)c(Nc4cc(C)[nH]n4)n3)cc2C)CC1` [Compound 162, ethyl 4-(4-(5-chloro-4-(5-methyl-1H-pyrazol-3-ylamino)pyrimidin-2-ylamino)-2,5-dimethylphenyl)piperidine-1-carboxylate] was run?
**A.** The IC50 was 13 nM.

**Q.** How did the IC50 turn out when `Cc1cc(Nc2nc(Nc3cc(C)c(C4CCN([C@@H](C)C(N)=O)CC4)cc3F)ncc2Cl)n[nH]1` [Compound 163] was run?
**A.** Its IC50 is 56 nM.

**Q.** How did the IC50 turn out when `CNC(=O)[C@H](C)N1CCC(c2cc(F)c(Nc3ncc(Cl)c(Nc4cc(C)[nH]n4)n3)cc2C)CC1` [Compound 164, (S)-2-(4-(4-(5-chloro-4-(5-methyl-1H-pyrazol-3-ylamino)pyrimidin-2-ylamino)-5-fluoro-2-methylphenyl)piperidin-1-yl)-N-methylpropanamide] was run?
**A.** Its IC50 is 33 nM.

**Q.** How did the IC50 turn out when `Cc1cc(Nc2nc(Nc3cc(C)c(C4CCN([C@H](C)C(N)=O)CC4)cc3F)ncc2Cl)n[nH]1` [Compound 165, (R)-2-(4-(4-(5-chloro-4-(5-methyl-1H-pyrazol-3-ylamino)pyrimidin-2-ylamino)-5-fluoro-2-methylphenyl)piperidin-1-yl)propanamide] was run?
**A.** The IC50 was 38 nM.
